According to patent US20050288307A1, “Anti-viral compounds” (priority 2002, published 2005):
Read-outs that look alike come from different tables or passages of the source.

Key:
CDK7/cyclin H = CDK7/cyclin H (Homo sapiens, UniProt P50613); test: CDK7 assay (CTD peptide substrate); format: biochemical; conditions: read-out: Average IC50 CDK7 cyclin H
Method: CTD peptide substrate (biotinyl-Ahx-(Tyr-Ser-Pro-Thr-Ser-Pro-Ser)4-NH2; 1-2 mg/mL) and recombinant human CDK7/cyclin H, CDK9/cyclin T1, or CDK9/cyclin K (0.5-2 μg) were incubated for 45 min at 30° C. in the presence of varying amounts of test compound in 20 mM MOPS pH 7.2, 25 mM β-glycerophosphate, 5 mM EGTA, 1 mM DTT, 1 mM sodium vanadate, 15 mM MgCl2, and 100 μM ATP (containing a trace amount of ^32PγATP) in a total volume of 25 μL in a 96-well microtiter plate. The reaction was stopped by placing the plate on ice for 2 min. Avidin (50 μg) was added to each well, and the plate was incubated at room temp for 30 min. The samples were transferred to a 96-well P81 filter plate, and washed (4×200 μL per well) with 75 mM phosphoric acid. Microscint 40 scintillation liquid (50 μL) was added to each well, and the amount of ^32P incorporation for each sample was measured using a Packard Topcount microplate scintillation counter.

Akt/PKB = Akt/PKB (Homo sapiens, UniProt P31749); test: Kinase specificity panel: Akt/PKB; format: biochemical; conditions: Table 2
CaMKII = format: biochemical; conditions: Table 2
ERK2 = ERK2 (Homo sapiens, UniProt P28482); test: Kinase specificity panel: ERK2; format: biochemical; conditions: Table 2
PKC = target: T1, PKC (Homo sapiens, UniProt P17252); test: PKC kinase assay (Histone 3 phosphorylation); format: biochemical; conditions: Table 2
T1 construct: 6xHis (C); made in house; host or cells: Sf9 insect cells (baculovirus)
Method: PKCα kinase activity may be measured by the incorporation of radio-labeled phosphate in Histone 3, as described. The reaction mixture (total volume 65 μl) consist of 50 mM Tris-HCl, 1 mM Calcium acetate, 3 mM DTT, 0.03 mg/ml Phosphatidylserine, 2.4 μg/ml PMA, 0.04% NP40, 12 mM Mg/Cl, purified PKCα-100 ng, Histone 3, 0.2 mg/ml, 100 μM ATP, 0.2 μCi [γ-^32P]-ATP. The reaction is carried over 15 min at 37° C. in microplate shaker and is stopped by adding 10 μl 75 mM orthophosphoric acid and placing the plate on ice. 50 μl of the reaction mixture is transferred onto P81 filterplate and after washing off the free radioactive phosphate (3 times with 200 μl 75 mM orthophosphoric acid per well) 50 μl of scintillation liquid (Microscint 40) were added to each well and the radioactivity is measured on Scintillation counter (Topcount, HP).

SAPK2a = SAPK2a (Homo sapiens, UniProt Q16539); test: Kinase specificity panel: SAPK2a; format: biochemical; conditions: Table 2
CDK1/Cyclin B = CDK1/Cyclin B (Homo sapiens, UniProt P06493); test: CDK1/cyclin B kinase assay (GST-Rb phosphorylation);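 also: Enzyme: His-tagged CDK1/Cyclin B co-expressed in baculovirus-infected Sf9 insect cells, purified via metal-chelate chromatography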
Method: (§1) His-tagged CDK2/Cyclin E and CDK1/Cyclin B may be co-expressed and PKCα singularly expressed in Sf 9 insect cells infected with the appropriate baculovirus constructs. The cells are harvested two days after infection by low speed centrifugation and the proteins purified from the insect cell pellets by Metal-chelate chromatography. Briefly, the insect cell pellet is lysed in Buffer A (10 mM Tris-HCl, pH 8.0, 150 mM NaCl, 0.02% NP40 and 5 mM β-marcaptoethanol, 1 mM NaF. 1 mM Na3VO4 and Protease Inhibitors Coctail (Sigma) containing AEBSF, pepstatin A, E 64, bestatin, leupeptin) by sonication. The soluble fraction is cleared by centrifugation and loaded onto Ni-NTA-Agarose (Quiagen). Non bound proteins were washed off with 300 mM NaCl, 5-15 mM Imidazole in Buffer A and the bound proteins eluted with 250 mM Imidazole in Buffer A. The purified proteins are extensively dialyzed against Storage buffer (20 mM HEPES pH 7.4, 50 mM NaCl, 2 mM DTT, 1 mM EDTA, 1 mM EGTA, 0.02% NP40, 10% v/v Glycerol) aliquoted and stored at −70° C.

CDK2/Cyclin E = target: T2, CDK2/Cyclin E (Homo sapiens, UniProt P24941); test: CDK2/cyclin E kinase assay (GST-Rb phosphorylation); format: biochemical; conditions: read-out: Average IC50 CDK2 cyclin E1;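 also: enzyme source: His-tagged CDK2/cyclin E complex co-expressed recombinantly in Sf9 insect cells using baculovirus constructs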
T2 construct: His; made in house; host or cells: Sf9 insect cells (baculovirus)
Method: as §1

CDK4/Cyclin D1 = CDK4/Cyclin D1 (Homo sapiens, UniProt P11802); test: CDK4/cyclin D1 kinase assay (GST-Rb phosphorylation); format: biochemical; conditions: read-out: Average IC50 CDK4 cyclin D1
CDK9/cyclin T1 = CDK9/cyclin T1 (Homo sapiens, UniProt P50750); test: CDK9 assay (CTD peptide substrate); format: biochemical; conditions: read-out: Average IC50 CDK9 cyclin T1
In short: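 Recombinant human CDK7/cyclin H or CDK9/cyclin T1 with biotinylated CTD peptide, 45 min at 30 °C, pH 7.2 MOPS buffer, 15 mM MgCl2, 100 μM ATP with trace [γ-32P]ATP. Avidin capture on P81 filters, phosphoric acid washes, 32P incorporation by scintillation counting.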

HIV-1RoJo/PBMC = test: Anti-HIV efficacy in fresh human PBMCs, strain RoJo; format: cell-based; conditions: HIV-1RoJo/PBMC; for IC50: Human immunodeficiency virus 1, read-out: IC50 (concentration inhibiting virus replication by 50%); for IC90: Human immunodeficiency virus 1, read-out: IC90 (concentration inhibiting virus replication by 90%)
Method: Fresh PBMCs, seronegative for HIV and HBV, were isolated from screened donors (Interstate Blood Bank, Inc. Memphis, Tenn.). Cells were pelleted/washed 2-3 times by low speed centrifugation and re-suspension in PBS to remove contaminating platelets. […] Banded PBMCs were gently aspirated from the resulting interface and subsequently washed with PBS by low speed centrifugation. […] The cells were allowed to incubate at 37° C. […] IL-2 is included in the culture medium to maintain the cell division initiated by the PHA mitogenic stimulation. PBMCs were maintained in this with bi-weekly medium changes until used in the assay protocol. Cells were kept in culture for a maximum of two weeks before being deemed too old for use in assays and discarded. Monocytes were depleted from the culture as the result of adherence to the tissue culture flask.
Tritiated thymidine triphosphate (^3H-TTP, 80 Ci/mmol, NEN) was received in 1:1 dH2O:Ethanol at 1 mCi/mL. Poly rA:oligo dT template:primer (Pharmacia) was prepared as a stock solution, followed by aliquoting and storage at −20° C. The RT reaction buffer was prepared fresh on a daily basis. The final reaction mixture was prepared by combining ^3H-TTP, dH2O, poly rA:oligo dT stock and reaction buffer. This reaction mixture was placed in a round bottom microtiter plate and supernatant containing virus was added and mixed. The plate was incubated at 37° C. for 60 minutes. Following incubation, the reaction volume was spotted onto DE81 filter-mats (Wallac), in a sodium phosphate buffer or 2×SSC (Life Technologies). Next they were washed in distilled water, in 70% ethanol, and then dried. Incorporated radioactivity (counts per minute, CPM) was quantified using standard liquid scintillation techniques.

HIV-1 = test: Anti-viral cell-based assays; conditions: result in words
[1] = Compound cytotoxicity in PBMC assay plates (MTS cell viability); conditions: human, TC50 (concentration decreasing cell viability by 50%), HIV-1RoJo/PBMC
CDK2/cyclin A = CDK2/cyclin A (Homo sapiens, UniProt P24941); test: CDK2/cyclin A kinase assay; format: biochemical; conditions: Table 3; read-out: Average IC50 CDK2 cyclin A2;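 also: Read-out is incorporated radioactivity retained on P81 filter plates and quantified by scintillation counting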
Method: Reactions were stopped on ice, followed by filtration through p81 filterplates (Whatman Polyfiltronics, Kent, UK). After washing 3 times with 75 mM orthophosphoric acid, plates were dried, scintillant added and incorporated radioactivity measured in a scintillation counter (TopCount, Packard Instruments, Pangboume, Berks, UK).

Sequence of SAPK2a (Q16539 whole entry, species assumed): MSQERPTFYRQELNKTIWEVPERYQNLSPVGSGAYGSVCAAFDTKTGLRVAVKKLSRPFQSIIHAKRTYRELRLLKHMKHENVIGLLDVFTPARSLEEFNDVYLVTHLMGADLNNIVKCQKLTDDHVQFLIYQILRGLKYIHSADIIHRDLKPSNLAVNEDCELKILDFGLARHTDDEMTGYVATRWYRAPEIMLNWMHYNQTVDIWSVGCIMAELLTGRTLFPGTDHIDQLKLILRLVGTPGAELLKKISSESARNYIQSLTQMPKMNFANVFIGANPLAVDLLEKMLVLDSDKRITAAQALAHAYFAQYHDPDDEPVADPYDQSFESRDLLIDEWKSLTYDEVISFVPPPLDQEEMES
Sequence of ERK2 (P28482 whole entry, species assumed): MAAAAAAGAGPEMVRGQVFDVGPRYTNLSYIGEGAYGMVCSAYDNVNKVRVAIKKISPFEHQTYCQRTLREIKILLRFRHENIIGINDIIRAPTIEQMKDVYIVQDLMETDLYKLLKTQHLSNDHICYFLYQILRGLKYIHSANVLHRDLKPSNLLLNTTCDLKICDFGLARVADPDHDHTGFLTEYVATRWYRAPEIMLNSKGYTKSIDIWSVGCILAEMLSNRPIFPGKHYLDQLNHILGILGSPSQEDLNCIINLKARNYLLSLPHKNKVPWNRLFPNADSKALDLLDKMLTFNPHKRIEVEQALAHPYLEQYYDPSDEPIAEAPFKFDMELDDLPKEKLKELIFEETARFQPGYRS
Sequence of Akt/PKB (P31749 whole entry): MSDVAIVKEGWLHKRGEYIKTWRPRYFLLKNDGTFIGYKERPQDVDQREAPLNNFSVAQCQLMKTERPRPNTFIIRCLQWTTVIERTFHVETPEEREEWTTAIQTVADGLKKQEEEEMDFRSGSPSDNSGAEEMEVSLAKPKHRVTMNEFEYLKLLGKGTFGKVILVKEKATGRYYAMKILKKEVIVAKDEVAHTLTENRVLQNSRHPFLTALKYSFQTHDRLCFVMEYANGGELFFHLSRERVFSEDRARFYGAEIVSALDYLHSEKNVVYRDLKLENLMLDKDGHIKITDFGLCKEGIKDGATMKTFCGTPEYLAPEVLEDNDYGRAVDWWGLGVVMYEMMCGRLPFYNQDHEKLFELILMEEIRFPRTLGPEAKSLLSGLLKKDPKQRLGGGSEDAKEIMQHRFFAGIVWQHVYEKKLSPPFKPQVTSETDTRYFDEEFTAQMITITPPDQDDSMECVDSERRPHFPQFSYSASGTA
Sequence of CDK7/cyclin H (P50613 whole entry): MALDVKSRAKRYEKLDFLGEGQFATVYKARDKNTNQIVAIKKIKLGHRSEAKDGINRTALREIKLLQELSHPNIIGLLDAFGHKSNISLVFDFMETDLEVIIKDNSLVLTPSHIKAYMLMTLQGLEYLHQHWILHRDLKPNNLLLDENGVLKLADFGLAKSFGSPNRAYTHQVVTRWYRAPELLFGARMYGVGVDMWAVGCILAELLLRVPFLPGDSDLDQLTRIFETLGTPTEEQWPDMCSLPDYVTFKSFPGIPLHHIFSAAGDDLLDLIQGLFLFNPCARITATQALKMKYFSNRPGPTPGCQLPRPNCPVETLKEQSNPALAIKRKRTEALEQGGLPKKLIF
Sequence of CDK7/cyclin H (P51946 whole entry partner): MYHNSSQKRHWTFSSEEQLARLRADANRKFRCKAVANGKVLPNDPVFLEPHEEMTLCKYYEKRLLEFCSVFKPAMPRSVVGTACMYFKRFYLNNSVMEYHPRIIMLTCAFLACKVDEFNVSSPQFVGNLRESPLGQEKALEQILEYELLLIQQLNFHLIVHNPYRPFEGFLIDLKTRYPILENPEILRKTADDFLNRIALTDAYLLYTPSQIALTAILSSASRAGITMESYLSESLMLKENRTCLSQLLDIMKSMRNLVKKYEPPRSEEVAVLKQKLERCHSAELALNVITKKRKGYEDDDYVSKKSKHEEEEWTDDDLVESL
Sequence of CDK4/Cyclin D1 (P11802 whole entry, species assumed): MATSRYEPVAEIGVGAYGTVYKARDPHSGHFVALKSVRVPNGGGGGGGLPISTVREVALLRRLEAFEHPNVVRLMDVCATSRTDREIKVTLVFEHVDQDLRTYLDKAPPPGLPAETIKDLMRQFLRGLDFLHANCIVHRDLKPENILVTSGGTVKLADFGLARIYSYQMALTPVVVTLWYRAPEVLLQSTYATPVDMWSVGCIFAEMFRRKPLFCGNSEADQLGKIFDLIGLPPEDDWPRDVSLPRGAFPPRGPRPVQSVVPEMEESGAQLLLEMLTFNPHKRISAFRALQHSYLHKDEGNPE
Sequence of CDK4/Cyclin D1 (P24385 whole entry partner, species assumed): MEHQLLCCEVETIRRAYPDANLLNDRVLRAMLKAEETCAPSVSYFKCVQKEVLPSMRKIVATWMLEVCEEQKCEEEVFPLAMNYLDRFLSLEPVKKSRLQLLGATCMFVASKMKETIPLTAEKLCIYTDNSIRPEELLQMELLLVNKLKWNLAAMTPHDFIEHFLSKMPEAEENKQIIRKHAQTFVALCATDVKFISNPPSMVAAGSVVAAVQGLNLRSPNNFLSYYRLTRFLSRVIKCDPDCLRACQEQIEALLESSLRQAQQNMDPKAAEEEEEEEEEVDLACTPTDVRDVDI
Sequence of CDK1/Cyclin B (P06493 whole entry, species assumed): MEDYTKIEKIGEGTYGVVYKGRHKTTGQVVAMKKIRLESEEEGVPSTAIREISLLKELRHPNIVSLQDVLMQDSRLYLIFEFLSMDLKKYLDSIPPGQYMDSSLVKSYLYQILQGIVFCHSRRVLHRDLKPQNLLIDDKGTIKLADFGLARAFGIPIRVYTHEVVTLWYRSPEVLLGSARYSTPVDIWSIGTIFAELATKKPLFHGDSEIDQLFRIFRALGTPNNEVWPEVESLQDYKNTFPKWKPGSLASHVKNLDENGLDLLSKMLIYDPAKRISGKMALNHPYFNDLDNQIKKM
Sequence of CDK1/Cyclin B (P14635 whole entry partner, species assumed): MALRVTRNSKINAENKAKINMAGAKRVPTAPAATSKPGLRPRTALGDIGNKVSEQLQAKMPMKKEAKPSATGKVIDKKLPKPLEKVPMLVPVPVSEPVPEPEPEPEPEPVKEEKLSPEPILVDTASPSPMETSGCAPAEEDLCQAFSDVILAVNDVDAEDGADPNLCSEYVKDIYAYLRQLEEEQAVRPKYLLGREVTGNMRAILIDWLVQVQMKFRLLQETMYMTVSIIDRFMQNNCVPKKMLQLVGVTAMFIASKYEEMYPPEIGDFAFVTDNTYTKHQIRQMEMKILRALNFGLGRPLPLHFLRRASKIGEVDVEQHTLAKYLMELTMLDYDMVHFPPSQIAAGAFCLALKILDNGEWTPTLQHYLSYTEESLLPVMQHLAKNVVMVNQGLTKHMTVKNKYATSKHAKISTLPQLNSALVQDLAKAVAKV

SMILES | IC50 (CDK7/cyclin H; Table 2) [nM] | IC50 (Akt/PKB) [µM] | IC50 (CaMKII) [µM] | IC50 (ERK2) [µM] | IC50 (PKC) [µM] | IC50 (SAPK2a) [µM] | IC50 (CDK1/Cyclin B) [nM] | IC50 (CDK2/Cyclin E; Table 2) [nM] | IC50 (CDK4/Cyclin D1; Table 2) [nM] | IC50 (CDK4/Cyclin D1; Table 3) [nM] | IC50 (CDK7/cyclin H; Table 3) [nM] | IC50 (CDK2/Cyclin E; Table 3) [nM] | IC50 (CDK9/cyclin T1; Table 3) [nM] | TI (therapeutic index: TC50/IC50) (HIV-1RoJo/PBMC) | IC50 (HIV-1RoJo/PBMC) [nM] | IC90 (HIV-1RoJo/PBMC) [nM] | anti-viral effectiveness as demonstrated by cell-based assays (HIV-1) | CC50 at 7 days [1] [µM] | IC50 (CDK2/cyclin A) [nM] | IC50 (CDK9/cyclin T1; Table 2) [nM]
Cc1nc(C)c(-c2ccnc(Nc3cccc([N+](=O)[O-])c3)n2)s1 [Compound 5, [4-(2,4-Dimethyl-thiazol-5-yl)-pyrimidin-2-yl]-(3-nitro-phenyl)-amine] | 13000 | > 50 | > 50 | 40 | 35 | 40 | 17000 | – | – | – | – | – | – | – | – | – | – | – | – | –
Cc1nc(C)c(-c2ccnc(Nc3ccc(F)cc3F)n2)s1 [Compound 9, (2,4-Difluoro-phenyl)-[4-(2,4-dimethyl-thiazol-5-yl)-pyrimidin-2-yl]-amine] | – | > 50 | > 50 | 55 | 40 | 40 | 38000 | 6300 | > 50000 | > 50000 | – | – | – | – | – | – | – | – | – | –
Cc1nc(C)c(-c2ccnc(Nc3ccc(C(F)(F)F)cc3)n2)s1 [Compound 15, [4-(2,4-Dimethyl-thiazol-5-yl)-pyrimidin-2-yl]-(4-trifluoromethyl-phenyl)-amine] | > 100000 | > 50 | > 50 | > 50 | > 50 | > 50 | 34000 | – | – | – | > 100000 | – | – | – | – | – | – | – | – | –
COc1ccc(Nc2nccc(-c3sc(C)nc3C)n2)cc1 [Compound 26, [4-(2,4-Dimethyl-thiazol-5-yl)-pyrimidin-2-yl]-(4-methoxy-phenyl)-amine] | – | > 50 | > 50 | > 50 | > 50 | 45 | 9000 | – | 2400 | – | – | – | – | – | – | – | – | – | – | –
Cc1nc(C)c(-c2ccnc(Nc3ccc(O)cc3)n2)s1 [Compound 28, 4-[4-(2,4-Dimethyl-thiazol-5-yl)-pyrimidin-2-ylamino]-phenol] | – | – | – | – | – | – | 1800 | – | – | 600 | 2400 | 280 | 460 | 80 | 280 | 21000 | particularly effective anti-viral agents | 22 | – | –
Cc1nc(C)c(-c2ccnc(Nc3cccc(C#N)c3)n2)s1 [Compound 36, 3-[4-(2,4-Dimethyl-thiazol-5-yl)-pyrimidin-2-ylamino]-benzonitrile] | 1700 | > 50 | > 50 | > 50 | > 50 | > 50 | 2500 | 390 | 2900 | – | – | 390 | – | – | – | – | – | – | 160 | 1000
CNc1nc(C)c(-c2ccnc(Nc3ccc(F)cc3)n2)s1 [Compound 47, (4-Fluoro-phenyl)-[4-(4-methyl-2-methylamino-thiazol-5-yl)-pyrimidin-2-yl]-amine] | – | – | – | – | – | – | – | – | – | – | – | 37 | 82 | 34 | 200 | 1200 | particularly effective anti-viral agents | 6.8 | – | –
CNc1nc(C)c(-c2ccnc(Nc3cccc(O)c3)n2)s1 [Compound 70, 3-[4-(4-Methyl-2-methylamino-thiazol-5-yl)-pyrimidin-2-ylamino]-phenol] | – | – | – | – | – | – | – | – | – | – | 3400 | 270 | 48 | 4.3 | 630 | 2600 | particularly effective anti-viral agents | 2.7 | – | –
Cc1nc(N)sc1-c1ccnc(Nc2cccc(O)c2)n1 [Compound 116, 3-[4-(2-Amino-4-methyl-thiazol-5-yl)-pyrimidin-2-ylamino]-phenol] | 990 | 53 | 7.7 | 15 | 33 | 29 | 580 | 110 | 460 | – | – | – | – | – | – | – | – | – | 180 | 130
Cc1nc(N)sc1-c1ccnc(Nc2ccc(I)c([N+](=O)[O-])c2)n1 [Compound 117, [4-(2-Amino-4-methyl-thiazol-5-yl)-pyrimidin-2-yl]-(4-iodo-3-nitro-phenyl)-amine] | 360 | 70 | > 100 | > 100 | > 100 | > 100 | 1700 | 280 | 1400 | – | – | – | – | – | – | – | – | – | 1700 | 55
COc1ccc(Nc2nccc(-c3sc(C)nc3C)n2)cc1OC [Compound 125, (3,4-Dimethoxy-phenyl)-[4-(2,4-dimethyl-thiazol-5-yl)-pyrimidin-2-yl]-amine] | – | – | – | – | – | – | 250 | – | – | 1100 | 5900 | 33 | 590 | 33 | 820 | 970 | particularly effective anti-viral agents | 27 | 260 | –
